The CombiSolv-Exp solvation set (Vermeire and Green 2021)

Assay: solvent given as SMILES
[1] = in CCCCCCCCC=CCCCCCCCC(=O)OCC(COC(=O)CCCCCCCC=CCCCCCCCC)OC(=O)CCCCCCCC=CCCCCCCCC

C(=Cc1ccccc1)c1ccccc1
solvation free energy, 298 K (in C1CCOC1): -11.8 kcal/mol
solvation free energy, 298 K (in C1COCCO1): -11.5 kcal/mol
solvation free energy, 298 K (in CC(C)(C)O): -9.66 kcal/mol
solvation free energy, 298 K (in CC(C)CC(C)(C)C): -9.92 kcal/mol
solvation free energy, 298 K (in CC(C)CC(C)O): -9.81 kcal/mol
solvation free energy, 298 K (in CC(C)CCCC(C)CCO): -10 kcal/mol
solvation free energy, 298 K (in CC(C)CCO): -9.88 kcal/mol
solvation free energy, 298 K (in CC(C)CO): -9.73 kcal/mol
solvation free energy, 298 K (in CC(C)O): -9.74 kcal/mol
solvation free energy, 298 K (in CCC(C)(C)O): -9.84 kcal/mol
solvation free energy, 298 K (in CCC(C)=O): -11.5 kcal/mol
solvation free energy, 298 K (in CCC(C)O): -9.81 kcal/mol
solvation free energy, 298 K (in CCCC(C)CO): -9.92 kcal/mol
solvation free energy, 298 K (in CCCC(C)O): -9.91 kcal/mol
solvation free energy, 298 K (in CCCCC(CC)CO): -10 kcal/mol
solvation free energy, 298 K (in CCCCCC): -10.2 kcal/mol
solvation free energy, 298 K (in CCCCCCC): -10.2 kcal/mol
solvation free energy, 298 K (in CCCCCCCC): -10.2 kcal/mol
solvation free energy, 298 K (in CCCCCCCCCC): -10.2 kcal/mol
solvation free energy, 298 K (in CCCCCCCCCCO): -10.2 kcal/mol
solvation free energy, 298 K (in CCCCCCCCO): -10.2 kcal/mol
solvation free energy, 298 K (in CCCCCCCO): -10.2 kcal/mol
solvation free energy, 298 K (in CCCCCCO): -10.1 kcal/mol
solvation free energy, 298 K (in CCCCCO): -10.1 kcal/mol
solvation free energy, 298 K (in CCCCO): -10 kcal/mol
solvation free energy, 298 K (in CCCCOC(C)=O): -11.2 kcal/mol
solvation free energy, 298 K (in CCCCOCCCC): -10.6 kcal/mol
solvation free energy, 298 K (in CCCO): -9.97 kcal/mol
solvation free energy, 298 K (in CCO): -9.99 kcal/mol
solvation free energy, 298 K (in CCOC(C)=O): -11.2 kcal/mol
solvation free energy, 298 K (in CCOCC): -11 kcal/mol
solvation free energy, 298 K (in CN(C)C=O): -11.6 kcal/mol
solvation free energy, 298 K (in CO): -9.92 kcal/mol
solvation free energy, 298 K (in COC(C)(C)C): -10.9 kcal/mol
solvation free energy, 298 K (in COC(C)=O): -11.2 kcal/mol
solvation free energy, 298 K (in Cc1ccc(C)cc1): -11.3 kcal/mol
solvation free energy, 298 K (in Cc1cccc(C)c1): -11.2 kcal/mol
solvation free energy, 298 K (in Cc1ccccc1C): -11.3 kcal/mol
solvation free energy, 298 K (in ClC(Cl)(Cl)Cl): -11.2 kcal/mol
solvation free energy, 298 K (in Clc1ccccc1): -11.5 kcal/mol
solvation free energy, 298 K (in O): -3.79 kcal/mol

Nc1cc([N+](=O)[O-])cc(Cl)c1O
solvation free energy, 298 K (in O): -10.2 kcal/mol

CC(C)=NO
solvation free energy, 298 K (in CCCCCC): -3.74 kcal/mol

C=CCO
solvation free energy, 298 K (in CC(=O)N(C)C): -4.69 kcal/mol
solvation free energy, 298 K (in CCCCN(C=O)CCCC): -5.42 kcal/mol
solvation free energy, 298 K (in CNC(C)=O): -5.87 kcal/mol
solvation free energy, 298 K (in O): -5.04 kcal/mol

CC(C)COC=O
solvation free energy, 298 K (in O): -2.22 kcal/mol

CC1CCC(C(C)C)C(=O)C1 (stereo unspecified)
solvation free energy, 298 K (in O): -2.53 kcal/mol

FC(Cl)Cl
solvation free energy, 298 K (in CN1CCCC1=O): -1.34 kcal/mol
solvation free energy, 298 K (in CN(C)C=O): -1.35 kcal/mol
solvation free energy, 298 K (in O): 1.54 kcal/mol

Clc1ccc(C(c2ccccc2Cl)C(Cl)(Cl)Cl)cc1 (stereo unspecified)
solvation free energy, 298 K [1]: -13.8 kcal/mol
solvation free energy, 298 K (in O): -5.31 kcal/mol

Oc1ccccc1Br
solvation free energy, 298 K (in CC(C)CC(C)(C)C): -6.25 kcal/mol
solvation free energy, 298 K (in CCCCCC): -6.52 kcal/mol
solvation free energy, 298 K (in CCCCCCC): -6.49 kcal/mol
solvation free energy, 298 K (in CCCCCCCC): -6.47 kcal/mol
solvation free energy, 298 K (in CCCCCCCCCC): -6.44 kcal/mol
solvation free energy, 298 K (in Cc1ccc(C)cc1): -7.18 kcal/mol
solvation free energy, 298 K (in Cc1cccc(C)c1): -7.27 kcal/mol
solvation free energy, 298 K (in Cc1ccccc1C): -7.22 kcal/mol
solvation free energy, 298 K (in O): -5.06 kcal/mol

Clc1ccc(Cl)c(-c2cc(Cl)c(Cl)c(Cl)c2)c1
solvation free energy, 298 K (in O): -3.61 kcal/mol

Cc1cccnc1
solvation free energy, 298 K (in CC(C)(C)O): -5.83 kcal/mol
solvation free energy, 298 K (in CC(C)CC(C)(C)C): -4.97 kcal/mol
solvation free energy, 298 K (in CCCCO): -6.41 kcal/mol
solvation free energy, 298 K (in CCCO): -6.34 kcal/mol
solvation free energy, 298 K (in O): -4.8 kcal/mol

O=C(OCc1ccccc1)c1ccccc1C(=O)OCc1ccccc1
solvation free energy, 298 K (in O): -11.3 kcal/mol

Clc1ccc(-c2ccc(Cl)c(Cl)c2Cl)c(Cl)c1Cl
solvation free energy, 298 K (in O): -3.6 kcal/mol

C1=CCCC=C1
solvation free energy, 298 K (in C1CCC2CCCCC2C1): -4.14 kcal/mol
solvation free energy, 298 K (in C1CCC(C2CCCCC2)CC1): -4.06 kcal/mol
solvation free energy, 298 K (in CN1CCCC1=O): -3.77 kcal/mol
solvation free energy, 298 K (in O): -0.26 kcal/mol
solvation free energy, 298 K (in c1ccc2c(c1)CCCC2): -4.31 kcal/mol
solvation free energy, 298 K (in c1ccc(C2CCCCC2)cc1): -4.19 kcal/mol

CCC(O)(CC)CC
solvation free energy, 298 K (in CCCCCCCC): -5.42 kcal/mol
solvation free energy, 298 K (in CCCCCCCCCC): -5.34 kcal/mol

CC(C(=O)O)c1ccc(C(=O)c2cccs2)cc1 (stereo unspecified)
solvation free energy, 298 K (in O): -13.9 kcal/mol

c1ccc2c(c1)cc1ccc3cccc4ccc2c1c34
solvation free energy, 298 K [1]: -16.7 kcal/mol

Cc1cc(C)cc(C)c1
solvation free energy, 298 K (in O): -0.77 kcal/mol
solvation free energy, 298 K (in OCCO): -3.76 kcal/mol
solvation free energy, 298 K (in OCCOCCO): -4.65 kcal/mol

CCCC(C)C(C)O (stereo unspecified)
solvation free energy, 298 K (in CCCCCCCC): -5.31 kcal/mol
solvation free energy, 298 K (in CCCCCCCCCC): -5.27 kcal/mol

CC(C)=CCCC(C)C1C=CC(C)=CC1 (stereo unspecified)
solvation free energy, 298 K (in O): -0.11 kcal/mol

C=CCC=C
solvation free energy, 298 K (in CN(C)C=O): -2.62 kcal/mol
solvation free energy, 298 K (in O): 0.94 kcal/mol

Cc1[nH]c(=O)n(C(C)(C)C)c(=O)c1Cl
solvation free energy, 298 K (in O): -11.1 kcal/mol

CCCCC=O
solvation free energy, 298 K (in CC(C)CC(C)(C)C): -4.24 kcal/mol
solvation free energy, 298 K (in CCCCCCCC): -3.97 kcal/mol
solvation free energy, 298 K (in CN1CCCC1=O): -4.67 kcal/mol
solvation free energy, 298 K (in CO): -4.87 kcal/mol
solvation free energy, 298 K (in NC=O): -3.77 kcal/mol
solvation free energy, 298 K (in O): -3.01 kcal/mol
solvation free energy, 298 K (in O=CN1CCOCC1): -4.49 kcal/mol
solvation free energy, 298 K (in [2H]O[2H]): -2.89 kcal/mol

OC1CCCCCCCCCCC1
solvation free energy, 298 K (in O): -5.35 kcal/mol

CCCCCCCCCCCCCCCO
solvation free energy, 298 K (in CCCCOCCCC): -12.4 kcal/mol
solvation free energy, 298 K (in O): -2.92 kcal/mol

CCCCCC(N)=O
solvation free energy, 298 K (in O): -9.31 kcal/mol

Nc1ccc(Cc2ccc(N)cc2)cc1
solvation free energy, 298 K (in O): -16.3 kcal/mol

Cc1ccnc(C)c1
solvation free energy, 298 K (in O): -4.86 kcal/mol

CCCCCCCCCC(=O)O
solvation free energy, 298 K (in O): -5.28 kcal/mol

Cc1ccccn1
solvation free energy, 298 K (in CC(C)(C)O): -5.91 kcal/mol
solvation free energy, 298 K (in CC(C)CC(C)(C)C): -4.69 kcal/mol
solvation free energy, 298 K (in CC(C)CO): -6.19 kcal/mol
solvation free energy, 298 K (in CC(C)O): -5.88 kcal/mol
solvation free energy, 298 K (in CCC(C)O): -6 kcal/mol
solvation free energy, 298 K (in CCOC(C)=O): -5.67 kcal/mol
solvation free energy, 298 K (in O): -4.63 kcal/mol

O=[N+]([O-])c1cccc(Cl)c1Cl
solvation free energy, 298 K (in C1CCCCC1): -8.4 kcal/mol
solvation free energy, 298 K (in CC(C)O): -8.56 kcal/mol
solvation free energy, 298 K (in CCCCCC): -7.97 kcal/mol
solvation free energy, 298 K (in CCCCCCC): -8.07 kcal/mol
solvation free energy, 298 K (in CCCCO): -8.71 kcal/mol
solvation free energy, 298 K (in CCCO): -8.65 kcal/mol
solvation free energy, 298 K (in CCOC(C)=O): -9.93 kcal/mol
solvation free energy, 298 K (in ClC(Cl)(Cl)Cl): -9.46 kcal/mol
solvation free energy, 298 K (in O): -4.22 kcal/mol

Nc1ncnc2c1ncn2C1CCC(CO)O1 (stereo unspecified)
solvation free energy, 298 K (in C=CCCCCCCC=C): -14.8 kcal/mol
solvation free energy, 298 K (in C=CCCCCCCCCCCCCCC): -14.7 kcal/mol
solvation free energy, 298 K (in O): -20.5 kcal/mol

CC(C)C1CCC2(C)C3CC4C(C13)C42C (stereo unspecified)
solvation free energy, 298 K (in O): 1.13 kcal/mol

C=CC=C
solvation free energy, 298 K (in C1CCC2CCCCC2C1): -2.17 kcal/mol
solvation free energy, 298 K (in C1COCCO1): -2.03 kcal/mol
solvation free energy, 298 K (in C=Cc1ccccc1): -2.36 kcal/mol
solvation free energy, 298 K (in CC1COC(=O)O1): -1.97 kcal/mol
solvation free energy, 298 K (in CC#N): -2.15 kcal/mol
solvation free energy, 298 K (in CC(=O)N(C)C): -2.56 kcal/mol
solvation free energy, 298 K (in CC(C)(C)O): -2.07 kcal/mol
solvation free energy, 298 K (in CC(C)=O): -2.74 kcal/mol
solvation free energy, 298 K (in CC(C)CCO): -2.09 kcal/mol
solvation free energy, 298 K (in CC(C)CO): -2.06 kcal/mol
solvation free energy, 298 K (in CC(C)O): -2.09 kcal/mol
solvation free energy, 298 K (in CCC(C)(C)O): -2.16 kcal/mol
solvation free energy, 298 K (in CCC(C)CO): -2.06 kcal/mol
solvation free energy, 298 K (in CCC(C)O): -2.07 kcal/mol
solvation free energy, 298 K (in CCC(O)CC): -2.09 kcal/mol
solvation free energy, 298 K (in CCCC(C)O): -2.07 kcal/mol
solvation free energy, 298 K (in CCCCCCC): -2.67 kcal/mol
solvation free energy, 298 K (in CCCCCCCCCCCCCCCC): -2.1 kcal/mol
solvation free energy, 298 K (in CCCCCO): -2.11 kcal/mol
solvation free energy, 298 K (in CCCCO): -2.11 kcal/mol
solvation free energy, 298 K (in CCCO): -2.16 kcal/mol
solvation free energy, 298 K (in CCOC(C)=O): -2.84 kcal/mol
solvation free energy, 298 K (in CCOCC): -2.72 kcal/mol
solvation free energy, 298 K (in CN1CCCC1=O): -2.36 kcal/mol
solvation free energy, 298 K (in CN(C)C=O): -2.29 kcal/mol
solvation free energy, 298 K (in CN(C)P(=O)(N(C)C)N(C)C): -2.46 kcal/mol
solvation free energy, 298 K (in CO): -2.14 kcal/mol
solvation free energy, 298 K (in COC(C)=O): -2.26 kcal/mol
solvation free energy, 298 K (in COCCOCCOCCOC): -2.05 kcal/mol
solvation free energy, 298 K (in CS(C)=O): -1.8 kcal/mol
solvation free energy, 298 K (in Cc1ccc(C)cc1): -2.45 kcal/mol
solvation free energy, 298 K (in Cc1cccc(C)c1): -2.48 kcal/mol
solvation free energy, 298 K (in Cc1ccccc1C): -2.46 kcal/mol
solvation free energy, 298 K (in ClCCl): -2.83 kcal/mol
solvation free energy, 298 K (in Nc1ccccc1): -2.06 kcal/mol
solvation free energy, 298 K (in O): 0.6 kcal/mol
solvation free energy, 298 K (in OCCCOCCCO): -1.73 kcal/mol
solvation free energy, 298 K (in OCCO): -1.35 kcal/mol
solvation free energy, 298 K (in OCc1ccccc1): -1.95 kcal/mol

CNC(=O)Oc1cccc2c1OC(C)(C)C2
solvation free energy, 298 K (in O): -9.61 kcal/mol

CC(C)=CCCC(C)CCOC=O (stereo unspecified)
solvation free energy, 298 K (in O): -3.08 kcal/mol
